From patent US20240246942A1, “KINASE INHIBITORS FOR THE TREATMENT OF NEURODEGENERATIVE DISEASES” (priority 2020, published 2024) come the findings set out here.

Structures are written as SMILES. Like-named read-outs stand apart in the source and are kept apart here.

Common to all, as to assay: biochemical
The target in assay [1] is T1, panel of 374 wild-type kinases (Homo sapiens, UniProt Q13153).
T1 construct: purchased Reaction Biology Corporation
The note with it: read-out: % Enzyme Activity (relative to DMSO controls), kinase PAK1.

For assay [2], the target named is T2, panel of 374 wild-type kinases (Homo sapiens, UniProt P22612).
T2 construct: purchased Reaction Biology Corporation
The note with it: read-out: % Enzyme Activity (relative to DMSO controls), kinase PKAcg.

The target in assay [3] is T3, panel of 374 wild-type kinases (Homo sapiens, UniProt Q9HBH9).
T3 construct: purchased Reaction Biology Corporation
The note with it: read-out: % Enzyme Activity (relative to DMSO controls), MNK2.

Assay [4] concerns the target T4, panel of 374 wild-type kinases (Homo sapiens, UniProt P57059).
T4 construct: purchased Reaction Biology Corporation

Assay [5] concerns the target T5, panel of 374 wild-type kinases (Homo sapiens, UniProt O95382).
T5 construct: purchased Reaction Biology Corporation
T5 sequence (O95382 1-1288): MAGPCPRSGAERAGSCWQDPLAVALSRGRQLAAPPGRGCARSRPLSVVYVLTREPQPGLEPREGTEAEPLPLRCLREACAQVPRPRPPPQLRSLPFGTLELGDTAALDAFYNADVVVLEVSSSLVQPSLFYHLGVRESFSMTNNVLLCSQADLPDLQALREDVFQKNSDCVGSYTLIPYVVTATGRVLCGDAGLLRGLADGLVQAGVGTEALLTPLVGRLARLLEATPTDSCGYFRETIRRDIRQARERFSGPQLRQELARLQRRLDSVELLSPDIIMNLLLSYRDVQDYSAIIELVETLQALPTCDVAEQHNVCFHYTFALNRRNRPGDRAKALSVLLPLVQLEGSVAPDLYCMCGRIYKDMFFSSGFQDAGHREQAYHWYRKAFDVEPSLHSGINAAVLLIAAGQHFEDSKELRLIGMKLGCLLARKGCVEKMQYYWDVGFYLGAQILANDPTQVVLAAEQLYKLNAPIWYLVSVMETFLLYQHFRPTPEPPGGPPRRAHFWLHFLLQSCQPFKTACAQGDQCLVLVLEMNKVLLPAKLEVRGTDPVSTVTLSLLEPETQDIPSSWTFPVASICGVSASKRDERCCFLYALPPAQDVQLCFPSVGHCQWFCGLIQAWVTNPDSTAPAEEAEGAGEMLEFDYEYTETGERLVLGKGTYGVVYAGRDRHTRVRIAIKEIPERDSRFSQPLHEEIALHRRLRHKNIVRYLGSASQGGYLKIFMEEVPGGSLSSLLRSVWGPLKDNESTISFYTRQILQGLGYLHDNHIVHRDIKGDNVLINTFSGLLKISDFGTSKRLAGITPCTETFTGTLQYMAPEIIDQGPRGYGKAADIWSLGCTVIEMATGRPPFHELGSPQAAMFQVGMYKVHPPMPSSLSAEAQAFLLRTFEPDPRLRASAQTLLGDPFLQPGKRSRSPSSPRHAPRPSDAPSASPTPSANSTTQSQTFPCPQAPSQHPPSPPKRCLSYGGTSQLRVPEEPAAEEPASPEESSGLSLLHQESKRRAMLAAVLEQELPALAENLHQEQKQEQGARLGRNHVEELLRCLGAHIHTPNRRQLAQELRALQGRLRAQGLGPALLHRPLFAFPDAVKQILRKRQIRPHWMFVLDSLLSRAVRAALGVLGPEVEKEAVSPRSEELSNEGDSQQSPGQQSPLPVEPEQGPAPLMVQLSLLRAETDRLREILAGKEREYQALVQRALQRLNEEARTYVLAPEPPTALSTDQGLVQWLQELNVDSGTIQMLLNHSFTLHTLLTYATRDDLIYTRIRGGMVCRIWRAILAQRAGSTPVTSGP
To be noted: read-out: % Enzyme Activity (relative to DMSO controls), MEKK6.

Assay [6] has as its target T6, panel of 374 wild-type kinases (Homo sapiens, UniProt P29376).
T6 construct: purchased Reaction Biology Corporation
The note with it: kinase TYK1/LTK, read-out: % Enzyme Activity (relative to DMSO controls).

Assay [7] addresses T7, panel of 374 wild-type kinases (Homo sapiens, UniProt O60674).
T7 construct: purchased Reaction Biology Corporation
To be noted: read-out: % Enzyme Activity (relative to DMSO controls), JAK2.

In assay [8] the target is T8, panel of 374 wild-type kinases (Homo sapiens, UniProt O00506).
T8 construct: purchased Reaction Biology Corporation
The note with it: read-out: % Enzyme Activity (relative to DMSO controls), kinase STK25/YSK1.

Assay [9] has as its target T9, panel of 374 wild-type kinases (Homo sapiens, UniProt P41743).
T9 construct: purchased Reaction Biology Corporation
T9 sequence (P41743 1-596): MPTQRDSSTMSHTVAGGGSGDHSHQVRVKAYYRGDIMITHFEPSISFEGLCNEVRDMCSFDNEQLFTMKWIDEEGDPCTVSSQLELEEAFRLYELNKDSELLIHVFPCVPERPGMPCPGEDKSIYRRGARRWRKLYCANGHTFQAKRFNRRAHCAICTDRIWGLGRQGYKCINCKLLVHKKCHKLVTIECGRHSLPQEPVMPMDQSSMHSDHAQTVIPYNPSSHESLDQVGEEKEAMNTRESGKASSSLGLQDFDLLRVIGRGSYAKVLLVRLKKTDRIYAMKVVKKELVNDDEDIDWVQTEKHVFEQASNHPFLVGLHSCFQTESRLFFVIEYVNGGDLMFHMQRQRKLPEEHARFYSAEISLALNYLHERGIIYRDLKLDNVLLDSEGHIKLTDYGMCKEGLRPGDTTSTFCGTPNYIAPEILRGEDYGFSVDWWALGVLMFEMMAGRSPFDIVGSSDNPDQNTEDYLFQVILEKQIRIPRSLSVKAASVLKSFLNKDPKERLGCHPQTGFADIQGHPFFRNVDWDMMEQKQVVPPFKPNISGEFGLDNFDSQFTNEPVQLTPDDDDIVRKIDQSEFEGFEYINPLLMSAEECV
The note with it: read-out: % Enzyme Activity (relative to DMSO controls), kinase PKCiota.

Assay [10] addresses T10, panel of 374 wild-type kinases (Homo sapiens, UniProt O75716).
T10 construct: purchased Reaction Biology Corporation
The note with it: read-out: % Enzyme Activity (relative to DMSO controls), kinase STK16.

Assay [11] deals with T11, panel of 374 wild-type kinases (Homo sapiens, UniProt P12931).
T11 construct: purchased Reaction Biology Corporation
The note with it: read-out: % Enzyme Activity (relative to DMSO controls), c-Src.

T2 sequence (P22612 whole entry): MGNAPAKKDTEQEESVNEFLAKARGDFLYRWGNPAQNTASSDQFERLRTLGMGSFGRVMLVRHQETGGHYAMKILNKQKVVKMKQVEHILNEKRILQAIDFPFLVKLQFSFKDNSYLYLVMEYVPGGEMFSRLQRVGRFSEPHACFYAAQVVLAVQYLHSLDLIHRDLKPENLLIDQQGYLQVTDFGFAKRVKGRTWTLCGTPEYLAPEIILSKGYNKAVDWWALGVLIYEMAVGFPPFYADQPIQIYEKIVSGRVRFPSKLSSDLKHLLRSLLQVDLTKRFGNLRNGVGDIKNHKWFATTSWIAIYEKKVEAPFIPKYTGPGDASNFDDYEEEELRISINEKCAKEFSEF
T1 sequence (Q13153 whole entry): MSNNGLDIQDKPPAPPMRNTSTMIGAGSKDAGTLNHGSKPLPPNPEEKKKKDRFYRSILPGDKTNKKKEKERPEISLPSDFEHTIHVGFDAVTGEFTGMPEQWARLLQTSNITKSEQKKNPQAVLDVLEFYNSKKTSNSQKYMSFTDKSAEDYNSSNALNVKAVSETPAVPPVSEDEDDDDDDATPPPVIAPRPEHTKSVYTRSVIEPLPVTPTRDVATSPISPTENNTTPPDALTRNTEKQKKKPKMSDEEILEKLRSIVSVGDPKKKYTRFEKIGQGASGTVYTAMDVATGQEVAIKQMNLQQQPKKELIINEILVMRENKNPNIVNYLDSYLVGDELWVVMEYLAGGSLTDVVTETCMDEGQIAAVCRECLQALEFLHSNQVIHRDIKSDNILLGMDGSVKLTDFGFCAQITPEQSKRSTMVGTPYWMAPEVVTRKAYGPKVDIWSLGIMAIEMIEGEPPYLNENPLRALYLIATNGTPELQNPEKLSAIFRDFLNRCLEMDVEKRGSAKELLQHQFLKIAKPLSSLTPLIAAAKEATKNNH
T6 sequence (P29376 17-864): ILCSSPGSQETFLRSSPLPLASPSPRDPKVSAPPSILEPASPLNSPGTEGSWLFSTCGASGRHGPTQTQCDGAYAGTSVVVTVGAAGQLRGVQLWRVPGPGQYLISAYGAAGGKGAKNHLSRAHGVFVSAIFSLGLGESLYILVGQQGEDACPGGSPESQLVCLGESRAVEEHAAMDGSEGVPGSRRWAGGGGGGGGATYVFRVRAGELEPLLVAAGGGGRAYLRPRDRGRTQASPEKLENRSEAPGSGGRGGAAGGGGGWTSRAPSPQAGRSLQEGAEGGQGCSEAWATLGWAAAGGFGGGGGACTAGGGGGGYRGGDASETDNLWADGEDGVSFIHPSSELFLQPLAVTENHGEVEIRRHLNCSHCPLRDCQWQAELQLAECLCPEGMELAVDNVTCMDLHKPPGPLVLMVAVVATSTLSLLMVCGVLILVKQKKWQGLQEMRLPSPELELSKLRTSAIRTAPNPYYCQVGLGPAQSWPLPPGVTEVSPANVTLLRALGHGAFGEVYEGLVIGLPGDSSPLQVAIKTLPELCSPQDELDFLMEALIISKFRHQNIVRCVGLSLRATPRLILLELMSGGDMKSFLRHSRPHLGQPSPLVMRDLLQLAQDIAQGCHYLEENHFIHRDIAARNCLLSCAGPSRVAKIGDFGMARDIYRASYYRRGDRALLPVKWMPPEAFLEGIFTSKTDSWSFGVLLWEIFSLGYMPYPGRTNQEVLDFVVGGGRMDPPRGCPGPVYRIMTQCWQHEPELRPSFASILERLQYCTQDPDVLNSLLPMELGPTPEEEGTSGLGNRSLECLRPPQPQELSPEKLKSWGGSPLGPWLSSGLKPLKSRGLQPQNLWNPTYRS
T4 sequence (P57059 whole entry): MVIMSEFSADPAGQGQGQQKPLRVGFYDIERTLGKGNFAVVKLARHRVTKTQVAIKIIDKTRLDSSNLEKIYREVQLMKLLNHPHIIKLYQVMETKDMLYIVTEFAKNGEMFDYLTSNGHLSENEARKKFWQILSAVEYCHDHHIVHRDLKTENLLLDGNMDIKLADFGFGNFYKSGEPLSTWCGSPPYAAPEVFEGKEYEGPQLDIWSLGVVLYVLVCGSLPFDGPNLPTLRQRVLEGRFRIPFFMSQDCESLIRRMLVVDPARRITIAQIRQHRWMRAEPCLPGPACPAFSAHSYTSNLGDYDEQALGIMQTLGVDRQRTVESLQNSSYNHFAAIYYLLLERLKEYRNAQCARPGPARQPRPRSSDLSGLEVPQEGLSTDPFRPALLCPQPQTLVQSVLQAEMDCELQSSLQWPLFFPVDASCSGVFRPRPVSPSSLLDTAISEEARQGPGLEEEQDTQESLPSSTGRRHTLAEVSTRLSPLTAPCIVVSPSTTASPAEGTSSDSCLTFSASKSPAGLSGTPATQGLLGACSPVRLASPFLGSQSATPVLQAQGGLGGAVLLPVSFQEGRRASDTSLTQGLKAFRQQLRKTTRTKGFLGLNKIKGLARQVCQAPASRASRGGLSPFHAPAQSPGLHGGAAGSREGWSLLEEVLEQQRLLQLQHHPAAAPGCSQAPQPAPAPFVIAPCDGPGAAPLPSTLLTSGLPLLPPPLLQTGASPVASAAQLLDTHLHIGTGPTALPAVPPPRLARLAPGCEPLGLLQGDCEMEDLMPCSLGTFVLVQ
T8 sequence (O00506 whole entry): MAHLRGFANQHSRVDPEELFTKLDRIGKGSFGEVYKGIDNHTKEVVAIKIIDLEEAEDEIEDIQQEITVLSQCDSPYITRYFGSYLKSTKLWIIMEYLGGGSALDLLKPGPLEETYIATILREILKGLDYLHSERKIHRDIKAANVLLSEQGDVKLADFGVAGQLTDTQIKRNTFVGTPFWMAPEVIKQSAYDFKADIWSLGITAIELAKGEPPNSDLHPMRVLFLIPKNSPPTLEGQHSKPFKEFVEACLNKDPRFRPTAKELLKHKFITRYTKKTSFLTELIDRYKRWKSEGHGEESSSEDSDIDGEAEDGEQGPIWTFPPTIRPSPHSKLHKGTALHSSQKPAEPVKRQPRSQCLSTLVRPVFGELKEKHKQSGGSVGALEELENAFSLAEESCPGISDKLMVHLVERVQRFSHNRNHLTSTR
T3 sequence (Q9HBH9 whole entry): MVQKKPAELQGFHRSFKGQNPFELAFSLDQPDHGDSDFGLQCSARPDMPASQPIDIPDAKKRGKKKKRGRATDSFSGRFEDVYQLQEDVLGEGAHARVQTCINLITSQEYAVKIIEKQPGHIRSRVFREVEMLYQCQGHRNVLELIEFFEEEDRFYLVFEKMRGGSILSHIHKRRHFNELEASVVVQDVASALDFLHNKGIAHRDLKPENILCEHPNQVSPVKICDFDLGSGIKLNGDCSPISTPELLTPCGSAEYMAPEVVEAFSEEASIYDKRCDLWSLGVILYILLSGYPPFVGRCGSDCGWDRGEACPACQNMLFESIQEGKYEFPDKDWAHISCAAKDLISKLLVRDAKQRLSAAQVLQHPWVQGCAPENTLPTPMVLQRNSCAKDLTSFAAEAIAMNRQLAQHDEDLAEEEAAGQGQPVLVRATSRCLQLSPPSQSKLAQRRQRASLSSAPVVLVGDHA
T10 sequence (O75716 whole entry): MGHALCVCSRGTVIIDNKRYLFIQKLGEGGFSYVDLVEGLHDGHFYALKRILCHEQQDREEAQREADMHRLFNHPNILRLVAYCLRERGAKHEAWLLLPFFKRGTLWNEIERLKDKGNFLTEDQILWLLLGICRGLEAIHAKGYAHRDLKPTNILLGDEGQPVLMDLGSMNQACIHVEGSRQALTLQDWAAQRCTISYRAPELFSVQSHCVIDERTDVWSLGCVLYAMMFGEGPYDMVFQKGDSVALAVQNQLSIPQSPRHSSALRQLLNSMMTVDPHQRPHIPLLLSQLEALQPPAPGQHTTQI
T11 sequence (P12931 whole entry): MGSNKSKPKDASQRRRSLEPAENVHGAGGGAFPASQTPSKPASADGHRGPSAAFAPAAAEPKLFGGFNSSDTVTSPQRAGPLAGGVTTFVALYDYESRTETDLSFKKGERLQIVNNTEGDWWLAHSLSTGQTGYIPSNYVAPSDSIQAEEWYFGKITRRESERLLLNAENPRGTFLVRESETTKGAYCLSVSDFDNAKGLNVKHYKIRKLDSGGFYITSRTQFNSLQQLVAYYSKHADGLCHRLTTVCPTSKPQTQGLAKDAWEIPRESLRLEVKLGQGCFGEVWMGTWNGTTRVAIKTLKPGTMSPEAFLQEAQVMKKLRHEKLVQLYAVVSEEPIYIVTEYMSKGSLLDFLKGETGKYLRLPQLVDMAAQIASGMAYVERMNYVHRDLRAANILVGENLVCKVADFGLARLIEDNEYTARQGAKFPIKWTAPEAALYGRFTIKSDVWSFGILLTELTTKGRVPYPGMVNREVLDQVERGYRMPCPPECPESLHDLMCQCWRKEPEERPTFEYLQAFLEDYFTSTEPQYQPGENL

As for `O=C(Nc1cnn(-c2csc(C(=O)NC3COC3)c2)c1)Nc1ccccc1Cl` [Compound 17, 4-(4-(3-(2-chlorophenyl)ureido)-1H-pyrazol-1-yl)-N-(oxetan-3-yl)thiophene-2-carboxamide], the remaining activity at 5 µM was 106% in assay [1]; 104% in [2]; 99.3% in [3]; 102% in [4] (read-out: % Enzyme Activity (relative to DMSO controls), kinase SIK1); 98.8% in assay [5]; 99.2% in [6]. The remaining activity at 5 µM in [7] was found to be 98.2%; in assay [8] it was 106%; in assay [9], 95.5%; in [10] it was 98.6%; in assay [11] it was 91.1%.

`O=C(Nc1cnn(-c2csc(C(=O)NC3COC3)c2)c1)Nc1c(F)cccc1Cl` [Compound 25, 4-(4-(3-(2-chloro-6-fluorophenyl)ureido)-1H-pyrazol-1-yl)-N-(oxetan-3-yl)thiophene-2-carboxamide]: the remaining activity at 5 µM in assay [1] worked out at 81.2%; in assay [2], 97.6%; in assay [3], 90.8%; in [4] (kinase SIK1, read-out: % Enzyme Activity (relative to DMSO controls)) it was 98.3%; in assay [5], 92.5%; in assay [6], 92.2%. The remaining activity at 5 µM in [7] stood at 96.5%; in assay [8], 96.1%; in [9], 87.4%; in assay [10], 107%; in assay [11], 98.4%.

As for `Cc1sc(C(=O)NC2COC2)cc1-n1cc(NC(=O)Nc2c(F)cccc2Cl)cn1` [Compound 27, 4-(4-(3-(2-chloro-6-fluorophenyl)ureido)-1H-pyrazol-1-yl)-5-methyl-N-(oxetan-3-yl)thiophene-2-carboxamide], the remaining activity at 10 µM in assay [1] (10 uM) was found to be 104%; in assay [2] (10 uM), 99%; in assay [3] (10 uM), 83.4%; in [4] (read-out: % Enzyme Activity (relative to DMSO controls), kinase SIK1, 10 uM), 99.8%; in assay [5] (10 uM), 79.3%; in assay [6] (10 uM) it was 114%. The remaining activity at 10 µM is 95% in [7] (10 uM); 70.5% in [8] (10 uM); 90.8% in assay [9] (10 uM); 94.4% in assay [10] (10 uM); 96.6% in assay [11] (10 uM).
